Results on two compounds are retold here after US20240360361A1, “PIPERAZINE BIS-UREA AND BIS-THIOUREA-BASED CORROSION INHIBITOR COMPOUNDS FOR STEEL PROTECTION” (QATAR UNIVERSITY, priority 2023, published 2024).

Molecules are shown by their SMILES. Several values for one entry are separate records, joined by “and”; a condition that tells them apart may be missing. Equal entries are not always repeated.

A short description of assay [1]: Tafel extrapolation (potentiodynamic polarization) of carbon steel in 1M HCl. The text has this: (§1) Corrosion inhibition efficiency (IE % or r %) is a measure of the efficiency of an inhibitor to effectively decrease a corrosion rate. Corrosion inhibition efficiency may be measured with the Tafel extrapolation of potentiodynamic polarization (PDP).
(§2) To investigate the effect of Inhibitor 1 on corrosion mechanisms, electrochemical measurements were obtained using Tafel and A.C. impedance experiments. FIGS. 1 and 2 show Tafel and AC impedance curves of carbon steel after adding 50 to 200 ppm of Inhibitor 1 to 1M HCl solution.
(§3) The Tafel extrapolation method was used to fit the curves and obtain corrosion parameters. […] The lowest reported current density at 200 ppm concentration was 4.5 μA·cm^−2, […] than 155 μA·cm^−2 recorded for blank 1M HCl. […] The charge transfer resistance reached the maximum of 1430 Ω·cm^2 at 200 ppm and Inhibitor 1 yielded around 93% efficiency after enhancing it from 116 Ω·cm^2 for the blank solution. Inhibitor 1 is a highly efficient corrosion inhibitor even at low concentrations; at concentrations of 50 ppm and 75 ppm, it yielded an 82% and 90% efficiency, respectively.

Assay [2] is described as follows: Tafel extrapolation of C-steel in 5M HCl, three-electrode cell. Here is the method: as §1
(§4) Electrochemical experiments were carried out using the three-electrode cell assembly (FIG. 4). Tafel and AC impedance measurements were obtained to elucidate the corrosion mechanisms and understand the interactions at the solution-surface interface. The effect of adding 10 to 200 ppm Inhibitor 2 on the C-steel corrosion in 5M HCl solution was determined by AC impedance and Tafel curves (FIG. 5 and FIG. 6).
(§5) Furthermore, electrochemical parameters describing the kinetics of the corrosion process were acquired following the Tafel extrapolation method to fit the curves of FIG. 6. […] Inhibitor 2 successfully achieved 95% efficiency in the highly corrosive condition of 5M HCl at a tolerable quantity of only 200 ppm concentration.

Assay [3] can be described thus: AC impedance of carbon steel in 1M HCl. Conditions: 200 ppm inhibitor.
Text: as §2, §3

Assay [4] can be described thus: AC impedance of C-steel in 5M HCl, three-electrode cell. Also on record: unit not given here. As to conditions: 200 ppm inhibitor. Here is the method: as §4, §5

With `O=C(NCCCN1CCN(CCCNC(=O)Nc2ccc([N+](=O)[O-])cc2)CC1)Nc1ccc([N+](=O)[O-])cc1` [Inhibitor 1], the “% Inhibition Efficiency” value in assay [1] (50 ppm inhibitor) is listed as 82%; in assay [1] (75 ppm inhibitor), 90%; in assay [1] (100 ppm inhibitor) it was 92%; in assay [1] (200 ppm inhibitor), 97%. Further, the Corrosion rate in assay [1] (50 ppm inhibitor) was 13 mils · year^−1; in assay [1] (75 ppm inhibitor) it was 6.8 mils · year^−1; in assay [1] (100 ppm inhibitor), 5.5 mils · year^−1; in assay [1] (200 ppm inhibitor) it was 2 mils · year^−1 and 2.0 mils · year^−1; in assay [2] (10 ppm inhibitor), 360 mils · year^−1; in assay [2] (50 ppm inhibitor), 196 mils · year^−1. Further, the Corrosion rate is reported as 96 mils · year^−1 in assay [2] (100 ppm inhibitor) and 46 mils · year^−1 in assay [2] (200 ppm inhibitor). In addition, the Current density was 29 μA · cm^−2 in assay [1] (50 ppm inhibitor); 15 μA · cm^−2 in assay [1] (75 ppm inhibitor); 12 μA · cm^−2 in assay [1] (100 ppm inhibitor); 4.5 μA · cm^−2 in assay [1] (200 ppm inhibitor); 787 μA · cm^−2 in assay [2] (10 ppm inhibitor); 429 μA · cm^−2 in assay [2] (50 ppm inhibitor). Further, the Current density is listed as 209 μA · cm^−2 in assay [2] (100 ppm inhibitor) and 100 μA · cm^−2 in assay [2] (200 ppm inhibitor). Also, the “Inhibition Efficiency %” value in assay [2] (10 ppm inhibitor) is 57%; in assay [2] (50 ppm inhibitor), 77%; in assay [2] (100 ppm inhibitor), 89%; in assay [2] (200 ppm inhibitor), 95%. In addition, the “Reduction of current density versus 5M HCl blank” value in assay [2] (200 ppm inhibitor) is on record as “about 18.5 fold”. In addition, the Charge transfer resistance in assay [3] is 1430 Ω·cm^2. The “Efficiency from charge transfer resistance (AC impedance)” value in assay [3] is recorded as “around 93%”.
With `O=[N+]([O-])c1ccc(NC(=S)NCCCN2CCN(CCCNC(=S)Nc3ccc([N+](=O)[O-])cc3)CC2)cc1` [Inhibitor 2], the “Charge transfer resistance (RCT)” value in assay [4] was determined as 83.4. Also, in assay [2] (200 ppm inhibitor), the Corrosion rate is given as 46 mils · year^−1 and the “Inhibition Efficiency %” value is 95%.
